# Columns and labels:
# Format in all cases: cell-based
# [1] = tested on: Cox family of sub-unit proteins of mitochondrial complex 4; assay: Gene expression Log2fold change, Cox family, KS483 cells; conditions: 7 days of stimulation
# [2] = tested on: Adiponectin gene expression in 3T3-L1 cells; assay: qPCR adiponectin gene expression in 3T3-L1 cells; conditions: 72 hours incubation, A 5.0 μg/ml, B 50 μM, C 1.0 μM
# Protocol: • DMEM • 10% heat inactivated FCS • Compound A—5.0 μg/ml • Compound B-50 μM • Compound C-1.0 μM • Compound A+B • Compound A+C Protocol 3T3-L1 cell line • DMEM • 10% heat inactivated FCS • Compound A-[…] • Compound B-50 μM • Compound C-1.0 μM • Compound A+B • Compound A+C
# In the of presence of: • 0.25 μM Dexamethasone & • 1 μg/ml Insulin • Therein A=pentosan, B=indomethacin, and C=pioglitazone.
# Cells were stimulated at day 4 when they were sub confluent. After 72 hours of incubation, RNA was isolated from the cells.
# Ppargc1a = Ppargc1a log2Foldchanges, RNA isolated from stimulated KS-cells; conditions: for effect on changes in Ppargc1a activity (in words): 3 and 7 days stimulation
# Excerpt: Therein A=pentosan, B-indomethacin, and C=pioglitazone. The RNA is isolated after 3 and 7 days stimulation in KS-cells, respectively. Ppargcla is considered particularly relevant for mitochondrial activity. A higher value represents a higher activity.
# [3] = tested on: Nduf family of sub-unit proteins of mitochondrial complex 1; assay: Gene expression Log2fold change, Nduf family, KS483 cells; conditions: 7 days of stimulation
Molecule,COX4iL Log2fold change [1],COX5a Log2fold change [1],COX5b Log2fold change [1],COX6b1 Log2fold change [1],COX7a2L Log2fold change [1],COX8a Log2fold change [1],COX15 Log2fold change [1],COX17 Log2fold change [1],COX19 Log2fold change [1],COX20 Log2fold change [1],Nduf4 0 Log2fold change [3],Ndufa5 Log2fold change [3],Ndufa9 Log2fold change [3],Ndufa10 Log2fold change [3],Ndufab1 Log2fold change [3],Ndufaf7 Log2fold change [3],Ndufb3 Log2fold change [3],Ndufb4 Log2fold change [3],Ndufb9 Log2fold change [3],Ndufb10 Log2fold change [3],further results
"COc1ccc2c(c1)c(CC(=O)O)c(C)n2C(=O)c1ccc(Cl)cc1 [Compound B, indomethacin]",0,0,0,0,0,0,0,0,0,0,0,0,0,0,0,0,0,0,0,0,effect on Adiponectin gene expression (FIG. 1) [2]: show adiponectin gene expression; effect on changes in Ppargc1a activity (in words) (Ppargc1a): no measurable effect; Ndufc1 Log2fold change [3]: 0; Ndufs10 Log2fold change [3]: 0; Ndufs20 Log2fold change [3]: 0; Ndufv1 Log2fold change [3]: 0; Ndufv3 Log2fold change [3]: 0
"CCc1ccc(CCOc2ccc(CC3SC(=O)NC3=O)cc2)nc1 (stereo not drawn) [Compound C, pioglitazone]",0,0,0,0,0,0,0,0,0,0,0,0.57,0,0,0,0.35,0,0,0,0,Ndufc1 Log2fold change [3]: 0; Ndufs10 Log2fold change [3]: 0; Ndufs20 Log2fold change [3]: 0; Ndufv1 Log2fold change [3]: 0; Ndufv3 Log2fold change [3]: 0
pentosan polysulphate [Compound A],0,0.31,0,0,−0.42,0,0,0,0,0,0,0,0,0,0,0,0,0,0,0,effect on Adiponectin gene expression (FIG. 1) [2]: hardly any effect; effect on changes in Ppargc1a activity (in words) (Ppargc1a): some effect; Ppargc1a log2Foldchanges (Ppargc1a; 3 days stimulation): 1.14; Ppargc1a log2Foldchanges (Ppargc1a; 7 days stimulation): 1.3; Ndufc1 Log2fold change [3]: 0; Ndufs10 Log2fold change [3]: 0; Ndufs20 Log2fold change [3]: 0; Ndufv1 Log2fold change [3]: 0; Ndufv3 Log2fold change [3]: 0

# — patent publication US20240382516A1, “PHARMACEUTICAL COMPOSITION FOR INCREASING MITOCHONDRIAL ACTIVITY AND/OR IMPROVING ADIPONECTIN PRODUCTION” (LOGICK ENERGETICS B.V., priority 2021, published 2024)
